Changes are numbered by the printed parent chain.

Results on twelve molecules are retold here after patent publication US20250259704A1, “SYSTEMS AND METHODS FOR CELL-FREE ITERATIVE SITE SATURATION MUTAGENESIS AND ITS APPLICATION FOR THE DIRECTED EVOLUTION OF ENZYMES CATALYZING UNNATURAL REACTIONS” (Northwestern University, priority 2022, published 2025).

The subject of series [1] is amide synthetase McbA. The experiment in a line: Substrate scope screen of McbA (all-by-all acids and amines, RP-HPLC). Type of series: biochemical, Marinactinospora thermotolerans. As to conditions: for wt conversion: conversion to the named amide product by wild-type McbA, ~1 μM enzyme, 25 mM substrates, 10% DMSO. The method, then: (§1) Amide products (along with acid substrates and some adenylated acid intermediates) were analyzed using an Agilent G6125B Single Quadrupole LC/MSD system equipped with an electrospray ionization source set to positive ionization mode. The quenched samples were centrifuged for 10 min at 4,500×g to remove precipitated proteins. A separate 384-well plate for sample injection into the HPLC-MS was prepared by diluting 5 μL of the quenched samples with 25 μL of methanol using the Integra VIAFLO. Trace amounts of compounds were detected using MS, while many compounds were present in high enough concentration to quantify by diode array detector (DAD) at 254 nm. Compounds were separated on a Luna C18 Column (Phenomenex 00D-4251-B0) using mobile phases (A) H2O with 0.1% formic acid and (B) Acetonitrile. The general method for chromatographic separation was carried out using the following gradients at a constant flow rate of 0.5 mL/min: 0 min 5% B; 1 min 5% B; 4 min 95% B; 4.5 min 95% B; 5 min 5% B. For the MS, capillary voltage was set at 3 kV, and nitrogen gas was used for nebulizing (35 psig) and drying (12 l/min, 350° C.). The MS was calibrated using Tuning Mix (Agilent G2421-60001) before measurements were taken. […] LC-MS data were collected and analyzed using Agilent OpenLab CDS ChemStation software. The product yield was calculated by dividing the DAD peak area for the amide product by the sums of the peak areas of both the amide and the acid substrate.
(§2) All high-throughput assays (hot spot screen, iterative site saturation mutagenesis, substrate scope, ML predictions validation, and ML prediction exploration) were assembled in 384-well plates (Bio-Rad) using an Integra VIAFLO liquid handling robot. […] The amidation assay was initiated by adding 3-μL of crude CFPS reaction containing an expressed McbA variant, with final concentrations of 25 mM ATP, 25 mM acid, 25 mM amine, 10% v/v DMSO, and ˜1 μM of enzyme (determined by ^14C-leucine incorporation using previously described protocols^66). […]

In series [2] the test system is amide synthetase McbA. As to the kind of experiment: Amidation assay with purified McbA variants, products analyzed by LC-MS. Type of series: biochemical, Marinactinospora thermotolerans. As to conditions: for Fold-Increase in yield: best ML-predicted variant (ML-McbA) versus wt-McbA for the named product, purified enzyme 0.5 mg/mL, n=3. The method, then:
Amide products (along with acid substrates and some adenylated acid intermediates) were analyzed using an Agilent G6125B Single Quadrupole LC/MSD system equipped with an electrospray ionization source set to positive ionization mode. The quenched samples were centrifuged for 10 min at 4,500×g to remove precipitated proteins. A separate 384-well plate for sample injection into the HPLC-MS was prepared by diluting 5 μL of the quenched samples with 25 μL of methanol using the Integra VIAFLO. Trace amounts of compounds were detected using MS, while many compounds were present in high enough concentration to quantify by diode array detector (DAD) at 254 nm. Compounds were separated on a Luna C18 Column (Phenomenex 00D-4251-B0) using mobile phases (A) H2O with 0.1% formic acid and (B) Acetonitrile. The general method for chromatographic separation was carried out using the following gradients at a constant flow rate of 0.5 mL/min: 0 min 5% B; 1 min 5% B; 4 min 95% B; 4.5 min 95% B; 5 min 5% B. For the MS, capillary voltage was set at 3 kV, and nitrogen gas was used for nebulizing (35 psig) and drying (12 l/min, 350° C.). The MS was calibrated using Tuning Mix (Agilent G2421-60001) before measurements were taken. MS data were acquired with a scan range of 50-600 m/z with various SIM m/z's according to which compound the inventors were screening for. LC-MS data were collected and analyzed using Agilent OpenLab CDS ChemStation software. The product yield was calculated by dividing the DAD peak area for the amide product by the sums of the peak areas of both the amide and the acid substrate.
Amidation assays for the purified McbA variants were set up similarly as described above. 8-μL reactions were assembled in triplicate, containing […], 10 mM MgCl2, 10 U/mL pyrophosphatase (Sigma I5907), 0.5 mg/mL McbA, 10% v/v DMSO, and volume to fill of 50 mM potassium phosphate pH 7.5. For assaying the production of cinchocaine and procainamide, substrates were decreased in stoichiometric amounts to 20 mM and 10 mM, respectively. This was to compensate for an observed poor solubility of these two acids (2-butoxyquinoline-4-carboxylic acid and 4-aminobenzoic acid) in the purified reaction at 10% v/v DMSO. Reactions were incubated at 37° C. for 16 hours and then quenched with 25-μL of methanol. The CAS numbers of all chemicals used in the hot spot screens, as well as the amide standards the inventors purchased, can be found in Table 1.
With the MLDE strategy validated, the approach could enable parallelized protein engineering for a wide variety of molecules (FIG. 14A). Starting with an identified target reaction from our substrate scope screen (FIGS. 5A-5F), we could use the same instance of our 1,280 single mutant McbA variant library to perform an HSS, select four hot spots, train and implement our machine learning model, and experimentally test the top 24 predictions (FIG. 14B). This approach was used to engineer distinct McbA mutants for the synthesis of an additional six pharmaceutical compounds (FIGS. 14B-14C). After identifying the best predicted variant for each reaction, the best variant for each reaction was expressed and purified, and the activity for each compound compared to wt-McbA (FIG. 14D). Fold-increase in yield observed compares wt-McbA to ML-McbA (n=3) for each small-molecule pharmaceutical. Increases in yield of the best mutant were observed ranging from 1.6-fold to 34-fold over wt-McbA for the six compounds tested.

For series [3], the system named is amide synthetase McbA. The experiment in a line: High-throughput amidation assay with crude CFPS-expressed McbA variants (hot spot screen, ISM). In kind it is biochemical, Marinactinospora thermotolerans. As to conditions: for conversion (yield) of moclobemide: final screening conditions, moclobemide synthesis, 25 mM ATP, acid, amine, 10% v/v DMSO, 37° C. 16 hours. On the procedure: as §1, §2

In series [4] the test system is amide synthetase McbA. The experiment in a line: Apparent steady-state kinetics, amide bond formation coupled to NADH oxidation. Type of series: biochemical, Marinactinospora thermotolerans. As to conditions: kcat/KM for the amine, versus wt-McbA. On the procedure:
McbA apparent kinetics for the amine pair of moclobemide (4-(2-aminoethyl)morpholine) were determined by enzymatically coupling amide bond formation (and the concomitant release of AMP from the acyl-AMP intermediate by its substitution with the amine) with the oxidation of NADH, as shown in FIGS. 7A-7B. Reactions contained 100 mM MOPS-KOH pH 7.8, 5 mM MgCl2, 2.5 mM phosphoenolpyruvate, 5 mM ATP, 0.3 mM NADH, 50 mM 4-chlorobenzoic acid, 15 U/mL pyruvate kinase and lactate dehydrogenase enzyme mix (Sigma-Aldrich P0294), 25 U/mL myokinase (Sigma-Aldrich 475941), and various concentrations (50-200 μg/mL) of the studied McbA variant. As the acid here (4-chlorobenzoic acid) has poor solubility in water and was dissolved in DMSO, the final reactions contained 10% v/v DMSO (equivalent to our amidation screens). 180-μL reactions were first equilibrated at 30° C. for 3 minutes and then initiated by adding 20-μL of amine. The initial velocity was determined for different concentrations of amine (0.1 mM-50 mM) by measuring NADH absorbance at 340 nm on a Cary 60 UV-Vis (Agilent). Data were collected and analyzed using the Cary WinUV Kinetics Application software (Agilent). Michaelis-Menten graphs were plotted in GraphPad Prism and fit using the default Michaelis-Menten non-linear regression analysis tool.

Series [5] is described as follows: Protein melting temperature by circular dichroism. In kind it is physicochemical. The method, then:
Protein melting temperature was determined using a Jasco J-810 circular dichroism spectrophotometer with a 10 mm path length cuvette monitored at 222 nm. McbA samples were first buffer exchanged into a 1× phosphate buffered saline solution, pH 7.4, and diluted to 0.2-0.4 mg/mL.
For orientation: Circular dichroism is widely used to follow secondary structure.

Take `CCN(CC)CCNC(=O)c1cc(Cl)c(N)cc1OC` [Metoclopramide]: the wt conversion in the series on amide synthetase McbA [1] amounted to 3%. As for `COc1cc(C(=O)NC2CCCNC2)cc(OC)c1OC` (centres unmarked) [Troxipide], the Fold-Increase in yield in the series on amide synthetase McbA [2] is listed as 34 fold.

With `COc1cc(C(=O)NCc2ccc(OCCN(C)C)cc2)cc(OC)c1OC` [Trimethobenzamide], the Fold-Increase in yield in the series on amide synthetase McbA [2] was 4.1 fold. Turning to `CCCCOc1cc(C(=O)NCCN(CC)CC)c2ccccc2n1` [Cinchocaine], the Fold-Increase in yield in the series on amide synthetase McbA [2] is 1.7 fold. Further, the wt conversion with amide synthetase McbA [1] was determined as 2%. As for `CCN(CC)CCNC(=O)c1ccc(N)cc1` [Procainamide], in the series with amide synthetase McbA [2], the Fold-Increase in yield was 10 fold. Turning to `CCN1CCCC1CNC(=O)c1cc(S(N)(=O)=O)ccc1OC` (centres unmarked) [Sulpiride], the Fold-Increase in yield in the series on amide synthetase McbA [2] is 6 fold. Turning to `COc1ccc(C(=O)NCc2ccc(OCCN(C)C)cc2)cc1OC` [Itopride], the Fold-Increase in yield in the series on amide synthetase McbA [2] is on record as 1.6 fold.

As to `CCN(CC)CCNC(=O)c1ccc(N)c(Cl)c1` [Declopramide], the Fold-Increase in yield in the series with amide synthetase McbA [2] is reported as 2.7 fold.

B1: wt-McbA: wild-type amide bond synthetase McbA from Marinactinospora thermotolerans with CSL-tag, SEQ ID NO: 2 (protein)
chain: MEKKIWSHPQFEKGGSGENLYFQGGYARRVMDGIGEVAVTGAGGSVTGARLRHQVRLLAHALTEAGIPPGRGVACLHANTWRAIALRLAVQAIGCHYVGLRPTAAVTEQARAIAAADSAALVFEPSVEARAADLLERVSVPVVLSLGPTSRGRDILAASVPEGTPLRYREHPEGIAVVAFTSGTTGTPKGVAHSSTAMSACVDAAVSMYGRGPWRFLIPIPLSDLGGELAQCTLATGGTVVLLEEFQPDAVLEAIERERATHVFLAPNWLYQLAEHPALPRSDLSSLRRVVYGGAPAVPSRVAAARERMGAVLMQNYGTQEAAFIAALTPDDHARRELLTAVGRPLPHVEVEIRDDSGGTLPRGAVGEVWVRSPMTMSGYWRDPERTAQVLSGGWLRTGDVGTFDEDGHLHLTDRLQDIIIVEAYNVYSRRVEHVLTEHPDVRAAAVVGVPDPDSGEAVCAAVVVADGADPDPEHLRALVRDHLGDLHVPRRVEFVRSIPVTPAGKPDKVKVRTWFTD
modifications: CSL-tag
B1: in the series on amide synthetase McbA [3], the “conversion (yield) of moclobemide” value was 12%. For the same molecule, the “amide bond formation step for troxipide” value in the series on amide synthetase McbA [2] (proficient at adenylating 3,4,5-trimethoxybenzoic acid, intermediate seen by LCMS) is listed as “unable to catalyze amide bond formation”. For the same molecule, in the series on amide synthetase McbA [1] (sulpiride synthesis), the stereoselectivity result is recorded as “strongly favoring the synthesis of S-sulpiride over R-sulpiride”.

B2: qm-McbAmetoclopramide: quadruple mutant of McbA from ISM campaign for metoclopramide, SEQ ID NO: 146 (protein)
chain: B1 chain with V177S, T319C, A323F, A424T
Regarding B2, the “activity over wt-McbA” value in the series on amide synthetase McbA [3] (metoclopramide synthesis, after three rounds of ISM) is recorded as approximately 30 fold.

B3: ml-McbAtroxipide: best ML-predicted McbA variant for troxipide, SEQ ID NO: 155 (protein)
chain: B1 chain with V177A, A323L, A424T, R430V
Consider B3, for which the increase in activity with amide synthetase McbA [2] (troxipide synthesis, versus wt-McbA) was 34 fold.

B4: qm-McbAmoclobemide: quadruple mutant of McbA from ISM campaign for moclobemide, SEQ ID NO: 145 (protein)
chain: B1 chain with V177S, I220S, A323F, R430L
Take B4: the “conversion (yield) of moclobemide” value with amide synthetase McbA [3] worked out at 96%. In addition, the “increase in catalytic efficiency from wt-McbA” value with amide synthetase McbA [4] stood at 42 fold. Also, in series [5], the “melting point change versus wt-McbA” value is recorded as “did not significantly change”.
